Here are results for 39 compounds from ChEMBL document CHEMBL3046096, “CoMFA AND CoMSIA STUDIES ON A SET OF BENZYL PIPERAZINES, PIPERADINES, PYRAZINOPYRIDOINDOLES, PYRAZINOISOQUINOLINES AND SEMI RIGID ANALOGS OF DIPHENHYDRAMINE” (Med Chem Res, 2004).

Chain of Histamine H1 receptor (Cavia porcellus) (P31389 whole entry): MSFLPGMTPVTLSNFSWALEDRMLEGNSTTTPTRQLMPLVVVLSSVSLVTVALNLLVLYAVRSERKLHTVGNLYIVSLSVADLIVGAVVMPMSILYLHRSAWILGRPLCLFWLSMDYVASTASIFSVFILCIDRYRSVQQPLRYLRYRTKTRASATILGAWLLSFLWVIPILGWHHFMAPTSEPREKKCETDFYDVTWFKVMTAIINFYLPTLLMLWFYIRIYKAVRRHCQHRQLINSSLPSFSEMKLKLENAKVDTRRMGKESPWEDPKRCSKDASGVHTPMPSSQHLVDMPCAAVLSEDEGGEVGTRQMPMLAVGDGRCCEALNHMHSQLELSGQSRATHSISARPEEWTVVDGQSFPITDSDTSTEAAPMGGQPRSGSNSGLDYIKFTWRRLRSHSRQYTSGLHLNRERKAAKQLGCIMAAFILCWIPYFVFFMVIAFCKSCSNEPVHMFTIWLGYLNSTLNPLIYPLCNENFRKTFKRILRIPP

This assay addresses Histamine H1 receptor (Cavia porcellus) (UniProt P31389). Description: Antagonist activity at histamine H1 receptor in Cavia porcellus (guinea pig) ileum. In kind it is tissue-based.
For `O=C(NCCN1CCN(Cc2ccccc2)CC1)c1ccccc1Cl`, the Activity is 0.696 µM/L.
In the case of `CN(C)C[C@@H]1O[C@@H](c2ccccc2)c2ccccc21` (relative stereo), the Activity was determined as 0.0039 µM/L.
For `O=C(CCN1CCC(Cc2ccccc2)CC1)Nc1ccccc1` the value was 1.51 µM/L; for `O=C(NCCN1CCC(Cc2ccccc2)CC1)c1ccccc1Br`, 0.661 µM/L; for `Cc1ccccc1C(=O)NCCN1CCC(Cc2ccccc2)CC1`, 1.07 µM/L.
The value for `CCc1ccccc1NC(=O)CCN1CCN2Cc3[nH]c4ccccc4c3CC2C1` (centres undefined) was 0.634 µM/L; that for `O=C(CCN1CCN(Cc2ccccc2)CC1)Nc1ccccc1F` was 1.32 µM/L; that for `Cc1ccccc1C(=O)NCCN1CCN2Cc3[nH]c4ccccc4c3CC2C1` (centres undefined) was 0.283 µM/L.
The value for `O=C(NCCN1CCN2Cc3[nH]c4ccccc4c3CC2C1)c1ccccc1[N+](=O)[O-]` (centres undefined) was 0.375 µM/L; that for `O=C(CCN1CCN2Cc3[nH]c4ccccc4c3CC2C1)Nc1ccccc1` (centres undefined) was 1.6 µM/L.
Regarding `O=C(CCN1CCN2Cc3ccccc3CC2C1)Nc1ccccc1[N+](=O)[O-]` (centres undefined), the Activity is 1.32 µM/L.
For `O=C(NCCN1CCN(Cc2ccccc2)CC1)c1ccccc1` the value was 6.94 µM/L.
For the compound `CN(C)CCOC1c2ccccc2-c2ccccc21`, the Activity is 0.039 µM/L.
`O=C(NCCN1CCN(Cc2ccccc2)CC1)c1ccccc1[N+](=O)[O-]` had an Activity of 1.32 µM/L.
Consider `CCc1ccccc1NC(=O)CCN1CCN2Cc3ccccc3CC2C1` (centres undefined), for which the Activity was 0.525 µM/L.
The compound `O=C(NCCN1CCN2Cc3[nH]c4ccccc4c3CC2C1)c1ccccc1` (centres undefined) displayed an Activity of 0.535 µM/L.
For `CCc1ccccc1NC(=O)CCN1CCN(Cc2ccccc2)CC1` the value was 0.778 µM/L; for `O=C(CCN1CCN2Cc3ccccc3CC2C1)Nc1ccccc1Cl` (centres undefined), 0.677 µM/L.
As to `CN(C)C[C@@H]1O[C@H](c2ccccc2)c2ccccc21` (relative stereo), the Activity amounted to 0.0039 µM/L.
For `O=C(CCN1CCC(Cc2ccccc2)CC1)Nc1ccccc1F` the value was 0.832 µM/L; for `O=C(NCCN1CCC(Cc2ccccc2)CC1)c1ccccc1`, 1.55 µM/L; for `O=C(NCCN1CCN(Cc2ccccc2)CC1)c1ccccc1Br`, 0.421 µM/L.
For `O=C(NCCN1CCN(Cc2ccccc2)CC1)c1ccccc1I` the value was 0.345 µM/L.
The value for `O=C(CCN1CCN(Cc2ccccc2)CC1)Nc1ccccc1` was 2.17 µM/L; that for `CN(C)[C@@H]1CO[C@@H](c2ccccc2)c2ccccc21` (relative stereo) was 0.51 µM/L.
Regarding `O=C(CCN1CCN2Cc3[nH]c4ccccc4c3CC2C1)Nc1ccccc1Cl` (centres undefined), the Activity turned out to be 0.979 µM/L.
Compound `O=C(CCN1CCN2Cc3ccccc3CC2C1)Nc1ccccc1` (centres undefined) had an Activity of 1.34 µM/L.
For `O=C(NCCN1CCN2Cc3[nH]c4ccccc4c3CC2C1)c1ccccc1Cl` (centres undefined) the value was 0.206 µM/L; for `COc1ccccc1C(=O)NCCN1CCN2Cc3[nH]c4ccccc4c3CC2C1` (centres undefined), 0.364 µM/L.
The compound `COc1ccccc1NC(=O)CCN1CCC(Cc2ccccc2)CC1` displayed an Activity of 0.963 µM/L.
`O=C(CCN1CCC(Cc2ccccc2)CC1)Nc1ccccc1Cl` displayed an Activity of 0.561 µM/L.
For `O=C(NCCN1CCC(Cc2ccccc2)CC1)c1ccccc1Cl` the value was 0.799 µM/L.
The value for `O=C(CCN1CCN2Cc3[nH]c4ccccc4c3CC2C1)Nc1ccccc1[N+](=O)[O-]` (centres undefined) was 1.74 µM/L; that for `O=C(CCN1CCN(Cc2ccccc2)CC1)Nc1ccccc1Cl` was 0.836 µM/L; that for `O=C(CCN1CCN(Cc2ccccc2)CC1)Nc1ccccc1[N+](=O)[O-]` was 1.7 µM/L.
For `O=C(CCN1CCN2Cc3[nH]c4ccccc4c3CC2C1)Nc1ccccc1F` (centres undefined) the value was 1.28 µM/L; for `Cc1ccccc1C(=O)NCCN1CCN(Cc2ccccc2)CC1`, 7.12 µM/L.
`CCc1ccccc1NC(=O)CCN1CCC(Cc2ccccc2)CC1` displayed an Activity of 0.477 µM/L.
Compound `Nc1ccccc1C(=O)NCCN1CCN2Cc3[nH]c4ccccc4c3CC2C1` (centres undefined) gave an Activity of 0.925 µM/L.
